From PubChem BioAssay (NCI) come the findings set out here.

Several values for one entry are separate records, joined by “and”; a condition that tells them apart may be missing. Equal values may be shown once.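 Dose response: 5 concentrations. Exposure: 48 h. Format: 96-well plates. Endpoint: linear interpolation; highest concentration if not reached. GI50 = concentration required for 50% inhibition of growth. Definition used: TGI = concentration required for complete inhibition of growth.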 *1 amine or outer side, *2 acyl side, *3 side chain or, on linkers, in order; H or OH if unused. Where a SMILES comes first, the peptide text is derived from it. [ ]: non-standard residue; d: D form. The star is where a group is joined. X11 = C/C=C/CC(C)C(O)[C@H](N[*:1])C(=O)[*:2]; Decanoyl = CCCCCCCCCC(=O)*; Leu(ol) = CC(C)C[C@H](N)CO; Iva = CC[C@](C)(N)C(=O)O; Aib = CC(C)(N)C(=O)O A value given as a limit tells only on which side of the number the result lay.

The assay concerns MDA-MB-468 breast. Description: NCI anticancer screen, dose series, 48 h.

As for `Cc1c(C#N)cccc1[C@@H](C)Nc1nnc(C)c2cnc(N3CCOCC3)cc12`, the GI50 was 7630 nM and the TGI came to 38100 nM.

Consider `O=C1/C(=C/c2ccc(F)cc2)CN(C(=O)CCN2CCC(=NO)CC2)C/C1=C\c1ccc(F)cc1`, for which the GI50 is 1730 nM and the TGI was found to be 4720 nM.

As to `C#Cc1cccc(Nc2nc(Cl)nc3cc(NC(=O)CCl)ccc23)c1`, the GI50 is 500 nM and the TGI was 1170 nM.

For the molecule `Cn1cc(C2=C(c3c[nH]c4ccccc34)C(=O)NC2=O)c2ccccc21`, the GI50 was 470 nM and the TGI was greater than 25000 nM.

For the molecule `CCN(CC)CCCC(C)Nc1cc(-c2cccc(OC(F)(F)F)c2)nc2ccc(N3CCCC3)cc12` (centres undefined), the GI50 was 43.5 nM and the TGI turned out to be 44000 nM.

Turning to `COc1ccc(C(=O)/C=C/c2cc(-c3cc(OC)c(OC)c(OC)c3)n[nH]2)cc1`, the GI50 was 1290 nM and the TGI came out at 2650 nM.

Consider `CC(=O)N1CCN(CCNC(=O)n2cc(-c3ccncc3)c(-c3cc(O)cc(Cl)c3)n2)CC1`, for which the GI50 is 4590 nM and the TGI turned out to be 20800 nM.

Regarding `COc1cc(OC)cc(C2C3=C(COC3=O)Nc3cc(OC)ccc32)c1` (centres undefined), the GI50 is less than 10 nM and the TGI is less than 12.2 nM.

Turning to `C/C=C/CC(C)C(O)[C@H](NC(=O)[C@@H]1CCCN1C(=O)[C@](C)(CC)NC(=O)CCCCCCCCC)C(=O)N[C@@](C)(CC)C(=O)N[C@@H](CCC(N)=O)C(=O)N[C@H](CCC(N)=O)C(=O)NC(C)(C)C(=O)NC(C)(C)C(=O)N[C@@H](CCC(N)=O)C(=O)N[C@H](CC(C)C)C(=O)N[C@H](CO)CC(C)C` (stereo partly drawn) (Decanoyl-[Iva]P[X11][Iva]Q[dQ][Aib][Aib]Q[dL][Leu(ol)]), the GI50 was 1780 nM and the TGI was found to be 3380 nM.

For `COc1ccccc1S(=O)(=O)Nc1ccc2c3c(cc(CCC(=O)NCCCCNc4cccc5c4C(=O)N(C4CCC(=O)NC4=O)C5=O)cc13)C(=O)N2C` (centres undefined), the GI50 was 21.7 nM and the TGI came out at 87.2 nM.

As to `CCCCCCSSC(=S)N(CC)CC`, the GI50 is 29900 nM and the TGI was greater than 100000 nM.

As to `Clc1ccc(-c2c3ccc(=[N+]4CCCCC4)cc-3oc3cc(N4CCCCC4)ccc23)cc1`, the GI50 is 104 nM and the TGI is 261 nM.

Take `O=C1CSC(c2ccccc2Cl)N1c1nnc(Cn2cnnc2)o1` (centres undefined): the GI50 was 3850 nM and the TGI was 17200 nM.

For `CNCCN(C)c1ccc(Nc2cc(NC3CC3)n3ncc(C#N)c3n2)cc1NC(C)=O`, the GI50 is less than 10.6 nM and the TGI was determined as 62.6 nM.

Consider `COC(=O)N1CCN(CCNCc2ccc(NC(=O)c3ccc(C)c(C#Cc4cnc5cccnn45)c3)cc2C(F)(F)F)CC1`, for which the GI50 is 1580 nM and the TGI was found to be 3200 nM.

For `Cc1ccc(-c2nc(/C=N/Nc3cc(C)nc4ccc(Cl)cc34)c(C)o2)cc1`, the GI50 is 1730 nM and the TGI stood at 3260 nM.

In the case of `CS(=O)(=O)c1ccc(Nc2nc(N[C@H]3CCCC[C@H]3N)nc3cc[nH]c(=O)c23)cc1`, the GI50 is 338 nM and the TGI was 1460 nM.

Take `O=C(/C=C/C=C/c1ccccc1)c1ccco1`: the GI50 is 5000 nM and the TGI is 25100 nM.

Regarding `COc1cc(C2C3=C(COC3=O)N(CCO)c3cc4c(cc32)OCCO4)cc(OC)c1OC` (centres undefined), the GI50 was 106 nM and the TGI was determined as 319 nM.

Regarding `O=C(NC(=O)c1c(Cl)nc2sccn12)Nc1ccc(Cl)cc1`, the GI50 was 3950 nM and the TGI was 35700 nM.

On to `CSc1nc2nc3c(nc2c(=O)n1C)C(=O)c1ccccc1C3=O`, for which the GI50 was 140 nM and the TGI was 352 nM.

Regarding `CNCCCNc1nc2ccccc2c2c(=O)c3cc(OC)ccc3sc12`, the GI50 was 1760 nM and the TGI was 3470 nM.

Take `C[C@@H]1CCC/C=C/[C@H]2C[C@@H](O)C[C@@H]2[C@@H](O)/C=C/C(=O)O1`: the GI50 was 64.8 nM and the TGI worked out at 5030 nM.

As to `CC/C(Cc1ccccc1)=C(\c1ccc(OCCN2CCCC2)cc1)c1ccc(OC(=O)NCc2ccccc2)cc1`, the GI50 was 1990 nM and the TGI turned out to be 3930 nM.

As to `C#C[C@@]1(O)[C@@H](CO)O[C@@H](n2cc(I)c3c(N)ncnc32)[C@@H]1O`, the GI50 is 153 nM and the TGI is 561 nM.

Consider `NS(=O)(=O)c1ccc(Nc2nc(N/N=C/c3ccc(C(F)(F)F)cc3)nc(Nc3ccccc3)n2)cc1`, for which the GI50 was 1730 nM and the TGI stood at 3870 nM.

In the case of `COc1cccc2cc(N(C)c3nc(C)nc4c3CCC4)ccc12`, the GI50 is less than 10 nM and the TGI was 20500 nM.

For `O=C(NCC(F)(F)F)Nc1cccc(-c2cnc3cc(-c4ccc(F)cc4)ccn23)c1`, the GI50 is 339 nM and the TGI was found to be 1930 nM.

As to `Cc1cc(C)c(C#N)c(Sc2nc(C)c([N+](=O)[O-])c(C)c2C#N)n1`, the GI50 was 1650 nM and the TGI was determined as 3770 nM.

In the case of `N#CC1=C(N)Oc2c(ccc3ccccc23)C1c1cc(=O)oc2ccc(Cl)cc12` (centres undefined), the GI50 was 520 nM and the TGI stood at 33000 nM.

`COc1ccc(-c2nc(-c3nc4ccc(C)cc4[nH]3)cc3c2[nH]c2ccccc23)cc1`: the GI50 was 2690 nM and the TGI was found to be 25000 nM.

In the case of `CS(=O)(=O)Nc1cccc(-c2ccc3ncnc(Nc4ccc(F)c(Cl)c4)c3c2)c1`, the GI50 was 108 nM and the TGI was found to be 860 nM.

In the case of `c1ccc(OCCC[P+](c2ccccc2)(c2ccccc2)c2ccccc2)cc1`, the GI50 was 230 nM and the TGI came out at 1490 nM.

Turning to `NC(=O)c1ccc(Oc2nccc(-c3c(-c4ccc(F)cc4)ncn3C3CCNCC3)n2)cc1`, the GI50 was 7400 nM and the TGI is greater than 25000 nM.

With `CC(C)N(Cc1ccc(CN(C(=O)CCl)C(C)C)cc1)C(=O)CCl`, the GI50 was 1740 nM and the TGI came out at 3940 nM.

For the molecule `COc1ccc(C(=O)c2cc(C)c(OC)c(C)c2)c(OC)c1NC(C)=O`, the GI50 was 159 nM.

Consider `CN(C)CCCn1c(=O)c2ccccc2c2cnc3[nH]ccc3c21`, for which the GI50 was 493 nM and the TGI stood at 2530 nM.

Consider `CN=C1C=CC(=C(c2ccc(N(C)C)cc2)c2ccc(N(C)C)cc2)C=C1`, for which the GI50 was 178 nM and the TGI stood at 539 nM.

Consider `COc1ccc(-c2cc3c(C)nc(N)nc3n(C3CCC(OCCO)CC3)c2=O)cn1` (centres undefined), for which the GI50 was 41.7 nM and 32.3 nM; the TGI is 270 nM and 256 nM.

For `O=C(NCCCc1cn[nH]c1)c1ccc(-c2ccncc2)c(C#Cc2ccc(F)cc2)c1`, the GI50 was 2140 nM and the TGI was 12800 nM.
